Target: T1, human SIRT3 (Homo sapiens, UniProt Q9NTG7)
T1 construct: recombinant enzyme supplied with Abcam fluorometric SIRT3 activity kit
T1 sequence (Q9NTG7 102-399): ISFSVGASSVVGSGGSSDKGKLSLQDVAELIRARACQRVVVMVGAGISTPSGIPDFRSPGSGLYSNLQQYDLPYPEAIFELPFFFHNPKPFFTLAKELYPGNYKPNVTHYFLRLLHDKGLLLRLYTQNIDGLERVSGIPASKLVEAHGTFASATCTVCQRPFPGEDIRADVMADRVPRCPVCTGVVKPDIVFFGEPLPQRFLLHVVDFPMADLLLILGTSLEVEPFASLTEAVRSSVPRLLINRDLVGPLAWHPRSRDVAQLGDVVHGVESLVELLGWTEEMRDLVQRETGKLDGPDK
Assay: fluorometric deacetylation assay, acetylated substrate peptide (Abcam ab156067)
Format: biochemical
Conditions: activator; 37 °C; NAD+ dependent assay

Oc1ccc(/C=C/c2cc(O)cc(O)c2)cc1 [REV, resveratrol]
fold increase in activity at 100 μM: 1.6 ± 0.1 fold
